{"source": "paper PMC10057977", "about": "“Use of In Vivo Imaging and Physiologically-Based Kinetic Modelling to Predict Hepatic Transporter Mediated Drug–Drug Interactions in Rats” (Pharmaceutics, 2023)", "key": {"NTCP": {"tested_on": "NTCP", "set-up": "method as in earlier work", "details": "in vitro; ref 30,43-55 and in-house data from Merck & Co.; cited from earlier work"}, "OATP1B1": {"tested_on": "OATP1B1", "set-up": "method as in earlier work", "details": "in vitro, bracket not explained in the table, ref 30,43-55 and in-house data from Merck & Co., cited from earlier work"}, "MRP2": {"tested_on": "MRP2", "details": "in vitro; bracket not explained in the table; ref 30,43-55 and in-house data from Merck & Co.; cited from earlier work"}, "rMrp2": {"biological_target": "rMrp2 (Rattus norvegicus, UniProt Q63120)", "sequence (Q63120 whole entry)": "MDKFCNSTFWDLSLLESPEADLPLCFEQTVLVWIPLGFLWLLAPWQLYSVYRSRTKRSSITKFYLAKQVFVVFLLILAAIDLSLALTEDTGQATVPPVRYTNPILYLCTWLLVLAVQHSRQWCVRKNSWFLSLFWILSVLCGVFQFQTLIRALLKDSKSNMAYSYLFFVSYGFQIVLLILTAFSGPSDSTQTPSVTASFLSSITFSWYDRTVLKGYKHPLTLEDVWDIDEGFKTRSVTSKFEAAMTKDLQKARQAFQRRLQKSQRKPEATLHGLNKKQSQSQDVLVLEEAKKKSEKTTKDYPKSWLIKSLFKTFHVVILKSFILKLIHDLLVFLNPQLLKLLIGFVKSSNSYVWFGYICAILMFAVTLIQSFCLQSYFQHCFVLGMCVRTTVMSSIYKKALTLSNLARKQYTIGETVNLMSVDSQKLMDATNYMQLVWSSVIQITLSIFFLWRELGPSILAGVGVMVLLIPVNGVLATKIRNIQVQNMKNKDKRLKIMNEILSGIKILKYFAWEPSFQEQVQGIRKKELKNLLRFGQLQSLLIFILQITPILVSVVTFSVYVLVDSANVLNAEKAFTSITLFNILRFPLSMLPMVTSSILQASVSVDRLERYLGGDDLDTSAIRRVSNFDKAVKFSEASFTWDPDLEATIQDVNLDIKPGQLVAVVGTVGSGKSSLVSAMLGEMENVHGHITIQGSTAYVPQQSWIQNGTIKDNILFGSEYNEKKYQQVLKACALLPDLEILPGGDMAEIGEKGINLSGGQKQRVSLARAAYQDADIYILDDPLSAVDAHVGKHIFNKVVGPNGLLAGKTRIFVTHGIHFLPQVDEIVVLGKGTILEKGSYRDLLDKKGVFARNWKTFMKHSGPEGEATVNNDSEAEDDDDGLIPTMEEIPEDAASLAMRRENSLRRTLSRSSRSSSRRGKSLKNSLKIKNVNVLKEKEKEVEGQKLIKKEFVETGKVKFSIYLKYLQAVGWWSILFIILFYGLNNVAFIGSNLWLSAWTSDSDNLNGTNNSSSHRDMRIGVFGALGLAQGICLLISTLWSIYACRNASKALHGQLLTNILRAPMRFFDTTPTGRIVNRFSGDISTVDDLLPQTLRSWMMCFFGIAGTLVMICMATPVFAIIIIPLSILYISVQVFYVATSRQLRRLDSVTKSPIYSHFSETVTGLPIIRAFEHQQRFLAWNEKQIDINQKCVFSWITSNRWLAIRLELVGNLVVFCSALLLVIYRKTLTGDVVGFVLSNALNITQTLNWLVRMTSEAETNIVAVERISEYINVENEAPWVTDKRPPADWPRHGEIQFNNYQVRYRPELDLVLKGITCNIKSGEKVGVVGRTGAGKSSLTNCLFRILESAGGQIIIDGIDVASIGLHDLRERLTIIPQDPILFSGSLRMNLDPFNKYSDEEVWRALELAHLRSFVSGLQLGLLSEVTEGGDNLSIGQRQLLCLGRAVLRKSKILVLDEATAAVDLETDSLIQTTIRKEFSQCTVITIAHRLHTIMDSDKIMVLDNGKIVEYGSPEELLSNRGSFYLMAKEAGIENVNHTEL", "type": "in vivo", "set-up": "from tissue; host or cells: liver of living male Wistar rats (Charles River Laboratories)", "details": "ketoconazole 3 mg/kg iv", "text": "The tracer-kinetic model was developed to enable estimation of rate constants of hepatobiliary efflux from DCE-MRI profiles in individual animals. In this approach, the liver was assumed to consist of two compartments, the extracellular space (e) and the hepatocytes (h). Since water exchanges rapidly between those spaces, the change in relaxation rate was a weighted average (Equation (4)). (4) ΔR1(t)=r1,e·ve·ce(t)+r1,h·vh·ch(t)\nThe proportionality constant, r1,τ [L⋅mmol^−1⋅s^−1] , is the relaxivity of the contrast agent for the compartment τ (extracellular space, e or hepatocytes, h) at the respective field strength, while vτ [mL/mL tissue] is the volume fraction of the compartment τ . Previously measured ex vivo r1,tau values for gadoxetate were used in this work, as per. The underlying assumptions of the PBPK and tracer-kinetic models, relating to physiological volumes and perfusion, are consistent, despite different parameterizations according to the purpose of each model. For example, Vliv,extr in the PBPK model is defined as an absolute volume (units = L; sum of liver plasma and interstitial volumes), while in the tracer-kinetic model, ve is a volume fraction (dimensionless), defined as Vliv,extr/Vliver , where Vliver is the total liver volume. While some analogy can be drawn between CLactive […], and CLbiliary and kbh, the interpretations are distinct. For example, the operating concentrations of the PBPK parameters CLactive […], and CLbiliary are the unbound concentrations of gadoxetate in plasma and hepatocytes, while the tracer-kinetic model is parameterized with respect to the total concentration of gadoxetate.\nSince ce(t) is the input to the hepatocytes, and no backflux from hepatocytes to extracellular space is assumed, Equation (5) can be derived. (5) vh·ch(t)=e^−t/Th∗khe·ce(t) where Th is the mean transit time of gadoxetate in the hepatocytes [min] , and * is convolution. The extracellular space is assumed to be in equilibrium with the blood pool and therefore the concentration ce(t) is proportional to the concentration cp(t) in the plasma of the feeding artery, i.e., ce(t) = (1 − E)·cp(t), where E is the extraction fraction of gadoxetate in the liver. Combining this assumption with Equations (4) and (5), and using (1 − E)·khe = E·Fp, with Fp being the apparent plasma flow into the liver [mL/min/mL tissue volume] , gives Equation (6), the operational equation for gadoxetate DCE-MRI in the liver. (6) ΔR1(t)=(1−E)·ve·r1,p·cp(t)+E·Fp·r1,h ·e^−t/Th ∗cp(t)\nThe rate constants were derived as K^trans = E·Fp, khe = E·Fp/(1 − E), and kbh = vh/Th, with a literature value for vh. The plasma concentrations cp(t) were not reliably measured in small animals due to the small diameter of the main vessels compared to the resolution of the measurement. […] Therefore, the source term cp(t) was derived from a two-compartment pharmacokinetic model for gadoxetate (see Supplementary Material, Section S5), and a step function as input in the blood compartment. The parameters kbh and khe were fitted to the liver data using a model implementation in Python. For each rat considered in these studies, the rate constants K^trans, khe, and kbh were calculated, in both control and inhibitory phases. The rate constants of the control and inhibitory phases were compared via calculation of simple (unstandardized) effect sizes (i.e., simple effect size = μcontrol − μtreatment, where μ is the mean average of all subjects) at the 95% confidence level. Statistical significance was assessed through a two-sided paired t-test, with p < 0.05 considered significant."}, "[1]": {"assay": "Drug plasma concentrations in humans at therapeutic dosing", "type": "in vivo", "details": "ketoconazole plasma exposure, human"}, "[2]": {"details": "cited from earlier work"}, "[3]": {"set-up": "method as in supplement [28]", "details": "rat; 30 min after 3 mg/kg ketoconazole IV; ref supplement [28]; cited from earlier work"}, "OATP1B3": {"tested_on": "OATP1B3", "set-up": "method as in earlier work", "details": "in vitro; ref 30,43-55 and in-house data from Merck & Co.; cited from earlier work"}}, "note": "Read-outs that look alike come from different tables or passages of the source."}
{"smiles": "CC(=O)N1CCN(c2ccc(OCC3COC(Cn4ccnc4)(c4ccc(Cl)cc4Cl)O3)cc2)CC1", "note": "(stereo not shown) [Ketoconazole]", "values": [{"measurement": "IC50", "setting": "NTCP", "value": 202, "unit": "µM"}, {"measurement": "IC50", "setting": "OATP1B1", "value": 15.4, "unit": "µM"}, {"measurement": "Ki", "setting": "OATP1B1", "value": 50.7, "unit": "µM"}, {"measurement": "IC50", "setting": "OATP1B1; listed as ketoconazole", "value": "> 2", "unit": "µM"}, {"measurement": "IC50", "setting": "MRP2", "value": "> 20", "unit": "µM"}, {"measurement": "Simple Effect Size (95% CI) kbh", "setting": "rMrp2; gadoxetate biliary efflux, control − treatment, positive = decrease, site D", "value": "0.02 (−0.02, 0.06) mL/min/mL liver"}, {"measurement": "change in gadoxetate kbh vs control", "setting": "rMrp2; rat, p = 0.39", "value": "no significant changes"}, {"measurement": "unbound Cmax", "setting": "[1]", "value": "~ 0.07 µM"}, {"measurement": "Cmax", "setting": "[2]; human plasma, daily dose 200 mg (ketoconazole), read-out: Cmax (µM) [Daily Dose]", "value": 6.6, "unit": "µM"}, {"measurement": "clinical Ctrough", "setting": "[2]; human, ref supplement [29]", "value": 0.2, "unit": "µM"}, {"measurement": "Cmax", "setting": "[2]; human, ref supplement [29], read-out: clinical Cmax", "value": 7, "unit": "µM"}, {"measurement": "plasma concentration", "setting": "[3]", "value": 4, "unit": "µM"}, {"measurement": "IC50", "setting": "OATP1B3", "value": 3.9, "unit": "µM"}]}
